Laboratory results taken from patent US4536592A, “2-Substituted prostaglandins” (G. D. Searle & Co., priority 1984, dated 1985).

Test: Diarrheogenic activity test (rat, intragastric, all or none diarrhea assessment)
Format: in vivo, Charles River rats
Conditions: doses 100 to 3000 microgram/kg
Method: Diarrhea is an undesirable side effect commonly associated with prostaglandins.
Groups of six adult male Charles River rats, weight range 180 to 200 grams are fasted for 24 hours prior to administering the test substance. The prostaglandin to be tested is administered intragastrically in iso-osmotic phosphate buffer at a volume of 10 ml/kg at doses ranging from 100 to 3000 microgram/kg. Control animals receive only the vehicle. The rats are placed in individual wire mesh cages and the trays lined with brown paper. Diarrhea is assessed at hourly intervals on an all or none basis for up to eight hours after administration of the prostaglandin. Diarrhea is defined as any loose or watery stool. ED50 value is assessed for each hourly diarrheogenic response.

Rat 8 hour Diarrheogenic ED50 [mg/kg] | Structure (SMILES) | TD50 at 8 h (in vivo, po, read-out: Rat 8 hour Diarrheogenic ED50) [mg/kg]
> 3.2 | CCCCC(C)(O)C/C=C/[C@H]1[C@H](O)CC(=O)[C@@H]1CCCCCC(C)C(=O)OC (relative stereo) [Compound II] | 
 | CCCCC(C)(O)C/C=C/[C@H]1[C@H](O)CC(=O)[C@@H]1CCCCCCC(=O)OC (relative stereo) [Compound I] | 0.366
